The record followed here is patent US8546421B1, “Oncogenic-RAS-signal dependent lethal compounds” (The Trustees of Columbia University in the City of New York, priority 2007, dated 2013).

Where “and” joins values, the source holds several entries; their conditions need not be identical. Equal values may be shown once. Entries after “also recorded” stand apart in the source; their conditions may differ. Bounds are passed on as bounds.

The subject of data set [1] is HT1080 cells. In words: Alamar blue assay with bioactive suppressors in HT1080. The class given is cell-based, human. Particulars: 150 μM DFOM, 10 μM U0126, 50 μM SU6656, or 100 μM Vitamin E. Here is the method: (§1) On the day of experiment, assay plates were prepared by seeding 3,000 HT1080, HT1080-pLKO, HT1080-TfR1 KD, Calu-1, Calu-1-pLKO, or Calu-1-509 cells per well in 36 μL of growth media to black, clear bottom 384-well plates. Also, assay plates were prepared by seeding 1,500 shRNA infected HT1080 or Calu-1 cells per well. Cells in assay plates were treated with each lethal compound in a 2-fold dilution series by transferring 4 μL solution from a 10× lethal plate of Erastin, Compound 3, Compound 27, or Compound 36. […] Percent growth inhibition (% GI) was calculated using fluorescence intensity values.
(Alamar Blue is a resazurin reagent that responds to reducing activity.)

Data set [2] has as its system Calu-1 cells expressing shRNAs targeting HRAS, NRAS or KRAS. The data set is described as follows: Drug sensitivity after shRNA knockdown of RAS. The class given is cell-based, human. Particulars: alamar blue. How it is done: On day one, 3×10^5 Calu-1 cells or 2×10^5 HT1080 cells were seeded in 10-cm dishes; on day 2, frozen virus stock was thawed at 37° C., hexadimethrine bromide (polybrene) (Sigma, cat.#H9268) was added to the virus solution at a final concentration of 8 μg/mL and growth media from cell culture was replaced with the virus/polybrene mixture. The culture was returned to the tissue culture incubator for 2 hours, with rocking of the dishes every 30 min in order to prevent drying. After 2 h, 10 mL growth medium was added, the culture was incubated for 2 days, and cells stably expressing shRNA were selected by adding puromycin (Sigma, cat.#P9620) at a final concentration of 1.5 μg/mL.
as §1

Data set [3] deals with BJeH, BJeHLT, BJeLR and DRD cells. In words: Cell growth inhibition by stereoisomers of Compound 27. As to conditions: Homo sapiens.
The nature of data set [4]: Maximum tolerated dose in mice. The class given is in vivo. As to conditions: mouse, in vivo, ip, single intraperitoneal injection in sterile PBS. Here is the method: (§2) The maximum tolerated dose of Compound 27 was tested in mice.
(§3) Each mouse in the study was administered a single intraperitoneal injection of Compound 27 dissolved in sterile PBS at 100 mg/kg, 200 mg/kg, or 400 mg/kg.

Data set [5] concerns mice. The data set is described as follows: Maximum tolerated dose in mice. The class given is in vivo. As to conditions: single intraperitoneal injection at 100, 200 or 400 mg/kg. How it is done: as §2, §3
The test system of data set [6] is 60 different human cancer cell lines (the NCI60 panel). In words: NCI60 anti-cancer screening, whole panel. The class given is cell-based. How it is done: NCI60 anti-cancer screening (“NCI60 test”) is a system that provides an opportunity to assess a drug candidate's potency and selectivity at a relatively early stage of drug discovery. […] Such compounds would be expected to kill sensitive cancer cells while having minimal effect on healthy cells in a predetermined concentration range. NCI60 anti-cancer screening makes use of 60 cancer cell lines from different human tissue origins. Cells are seeded on a 96-well plate, treated with lethal compounds in 5-point, 10-fold dilution series pattern starting at 100 μM (i.e. 10 nM, 100 nM, 1 μM, 10 μM, 100 μM) for 2 days, and measured for cell viability using sulforhodamine B dye. The optical densities of treated samples are determined using a plate reader and percent growth value is calculated by processing the optical density value.
The entire NCI60 test is replicated at least twice to ensure consistency of the data and to determine accurate GI50, TGI and LC50 values. The panel of results for each candidate compound in the NCI60 test is known as the “sensitivity profile.”

For data set [7], the system named is HOP-62. The data set is described as follows: NCI60 anti-cancer screening. Particulars: Non-small cell lung carcinoma. The class given is cell-based.

The EC50 is the concentration at which the effect is half-maximal. As a reminder, the MTD is the largest dose that counted as tolerated. A lower MTD goes with poorer tolerability. Turning to `COC(=O)c1ccc(C2c3[nH]c4ccccc4c3CC(C(=O)OC)N2C(=O)CCl)cc1` (stereo not shown) [Compound 27], in data set [1], the “treatments that inhibit compound-induced cell death in HT1080 cells” value is on record as “iron chelators, MEK inhibitors or non-receptor tyrosine kinase inhibitors effectively inhibited”. Further, the “sensitivity of Calu-1 cells after RAS shRNA compared with parental cells” value in data set [2] was “more resistant; also recorded: less effective”. Also, the EC50 in data set [3] is ~0.05 µg/mL and ~100 nM. This molecule gave an MTD in data set [4] of more than 400 mg/kg. Further, the mortality result in data set [5] is “None of the mice died”. Besides, in data set [6], the “difference in sensitivity between resistant and sensitive cell lines” value is reported as “up to 10^4 fold”; the “potency / selectivity in NCI60 (in words)” value is recorded as “nanomolar (nM) concentration range”.

For orientation: GI50 means the concentration giving 50% growth inhibition. Usually LC50 stands for the concentration lethal to half of the exposed cells or organisms. `C=C1CCC2C(C)(C)CCC[C@]2(C)C1CC/C(C)=C\CC/C(C)=N/NC(N)=S` (stereo partly shown) [Compound 36]: in data set [7] (Homo sapiens), it took 405 nM to inhibit growth by half (GI50) and the LC50 is 3.77 µM. Also, the “GI 100%” value in data set [7] stood at 1.42 µM.
